Data: PubChem BioAssay AID2060498 (Molecular Pharmacology Branch, DTP, NCI, 2025)

Tested on: 171881-019-R-J1-PDC tumor spheroids, viability
Assay: Anticancer human tumor 171881-019-R-J1-PDC patient-derived invasive breast carcinoma cell line growth inhibition [GQUAD]
Settings: spheroids with HUVEC and MSC; for IC50: curve of first compound; for viability, T/C: stronger effect = lower value
How it was run: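 Tumor cells were grown as complex spheroids with HUVEC endothelial cells and mesenchymal stem cells as stroma. G-quadruplex stabilizers were combined with targeted agents over half-log dilutions from near the clinical Cmax, or from 10 microM.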

[1] = second compound 0.0316 µM, first compound 0.0316 µM
[2] = second compound 0.0316 µM, first compound 0.316 µM
[3] = second compound 0.1 µM, first compound 0.0316 µM
[4] = second compound 0.1 µM, first compound 0.316 µM
[5] = second compound 0.316 µM, first compound 0.0316 µM
[6] = second compound 0.316 µM, first compound 0.316 µM
[7] = second compound 1 µM, first compound 0.0316 µM
[8] = second compound 1 µM, first compound 0.316 µM
[9] = second compound 3.16 µM, first compound 0.0316 µM
[10] = second compound 3.16 µM, first compound 0.316 µM
[11] = second compound 10 µM, first compound 0.0316 µM
[12] = second compound 10 µM, first compound 0.316 µM
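Further: spheroids exposed to compounds for 7 days.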
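Wherever viability, T/C is given: 100% = DMSO vehicle control viability.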

Q: Which results are given for `CCc1c2c(nc3ccc(O)cc13)-c1cc3c(c(=O)n1C2)COC(=O)[C@]3(O)CC` + CN(C)c1ccc(Nc2c3ccc(NC(=O)CCN4CCCC4)cc3nc3cc(NC(=O)CCN4CCCC4)ccc23)cc1?
A: IC50 (second compound 0.0316 µM): 0.008 µM; IC50 (second compound 0.1 µM): 0.00774 µM; IC50 (second compound 0.316 µM): 0.00432 µM; IC50 (second compound 1 µM): < 0.000999 µM; IC50 (second compound 3.16 µM): < 0.000999 µM; IC50 (second compound 10 µM): < 0.000999 µM; viability, T/C (second compound 0.0316 µM, first compound 0.000999 µM): 91.8%; viability, T/C (second compound 0.0316 µM, first compound 0.00316 µM): 56.5%; viability, T/C (second compound 0.0316 µM, first compound 0.00999 µM): 49.2%; viability, T/C [1]: 42.3%; viability, T/C (second compound 0.0316 µM, first compound 0.0999 µM): 33.4%; viability, T/C [2]: 24.8%; viability, T/C (second compound 0.1 µM, first compound 0.000999 µM): 94.9%; viability, T/C (second compound 0.1 µM, first compound 0.00316 µM): 55.6%; viability, T/C (second compound 0.1 µM, first compound 0.00999 µM): 50.2%; viability, T/C [3]: 43.8%; viability, T/C (second compound 0.1 µM, first compound 0.0999 µM): 32.4%; viability, T/C [4]: 27.4%; viability, T/C (second compound 0.316 µM, first compound 0.000999 µM): 77.1%; viability, T/C (second compound 0.316 µM, first compound 0.00316 µM): 51.1%; viability, T/C (second compound 0.316 µM, first compound 0.00999 µM): 42.2%; viability, T/C [5]: 30.9%; viability, T/C (second compound 0.316 µM, first compound 0.0999 µM): 30.3%; viability, T/C [6]: 22%; viability, T/C (second compound 1 µM, first compound 0.000999 µM): 16.3%; viability, T/C (second compound 1 µM, first compound 0.00316 µM): 12.6%; viability, T/C (second compound 1 µM, first compound 0.00999 µM): 17%; viability, T/C [7]: 11%; viability, T/C (second compound 1 µM, first compound 0.0999 µM): 7.94%; viability, T/C [8]: 6.83%; viability, T/C (second compound 3.16 µM, first compound 0.000999 µM): 2.04%; viability, T/C (second compound 3.16 µM, first compound 0.00316 µM): 1.12%; viability, T/C (second compound 3.16 µM, first compound 0.00999 µM): 2.08%; viability, T/C [9]: 1.29%; viability, T/C (second compound 3.16 µM, first compound 0.0999 µM): 1.67%; viability, T/C [10]: 1.67%; viability, T/C (second compound 10 µM, first compound 0.000999 µM): 0.56%; viability, T/C (second compound 10 µM, first compound 0.00316 µM): 0.37%; viability, T/C (second compound 10 µM, first compound 0.00999 µM): 0.38%; viability, T/C [11]: 0.48%; viability, T/C (second compound 10 µM, first compound 0.0999 µM): 0.49%; viability, T/C [12]: 0.16%

Q: How did the IC50 (second compound 0.0316 µM) turn out when `COc1cc(C2c3cc4c(cc3C(OC3OC5COC(C)OC5C(O)C3O)C3COC(=O)C23)OCO4)cc(OC)c1O` (centres undefined) + CN(C)c1ccc(Nc2c3ccc(NC(=O)CCN4CCCC4)cc3nc3cc(NC(=O)CCN4CCCC4)ccc23)cc1 was run?
A: The IC50 was 4.59 µM.

Q: And the IC50 (second compound 0.1 µM)?
A: Its IC50 is 3.5 µM.

Q: What about the IC50 (second compound 0.316 µM) of the same molecule?
A: Its IC50 is 2.63 µM.

Q: What about the IC50 (second compound 1 µM) of the same molecule?
A: Its IC50 is under 0.0316 µM.

Q: What about the IC50 (second compound 3.16 µM) of the same molecule?
A: The IC50 was under 0.0316 µM.

Q: What about the IC50 (second compound 10 µM) of the same molecule?
A: The IC50 was under 0.0316 µM.

Q: What about the viability, T/C [1] of the same molecule?
A: The viability, T/C was 114%.

Q: And the viability, T/C (second compound 0.0316 µM, first compound 0.1 µM)?
A: The viability, T/C was 103%.

Q: And the viability, T/C [2]?
A: Its viability, T/C is 94.9%.

Q: What about the viability, T/C (second compound 0.0316 µM, first compound 1 µM) of the same molecule?
A: Its viability, T/C is 79%.

Q: And the viability, T/C (second compound 0.0316 µM, first compound 3.16 µM)?
A: Its viability, T/C is 51.7%.

Q: What about the viability, T/C (second compound 0.0316 µM, first compound 10 µM) of the same molecule?
A: Its viability, T/C is 41.2%.

Q: And the viability, T/C [3]?
A: Its viability, T/C is 106%.

Q: And the viability, T/C (second compound 0.1 µM, first compound 0.1 µM)?
A: Its viability, T/C is 108%.

Q: What about the viability, T/C [4] of the same molecule?
A: The viability, T/C was 88.9%.

Q: What about the viability, T/C (second compound 0.1 µM, first compound 1 µM) of the same molecule?
A: The viability, T/C was 76%.

Q: And the viability, T/C (second compound 0.1 µM, first compound 3.16 µM)?
A: Its viability, T/C is 49.8%.

Q: And the viability, T/C (second compound 0.1 µM, first compound 10 µM)?
A: The viability, T/C was 37.9%.

Q: What about the viability, T/C [5] of the same molecule?
A: Its viability, T/C is 86.4%.

Q: And the viability, T/C (second compound 0.316 µM, first compound 0.1 µM)?
A: Its viability, T/C is 87.5%.

Q: What about the viability, T/C [6] of the same molecule?
A: Its viability, T/C is 69.2%.

Q: What about the viability, T/C (second compound 0.316 µM, first compound 1 µM) of the same molecule?
A: The viability, T/C was 56.5%.

Q: And the viability, T/C (second compound 0.316 µM, first compound 3.16 µM)?
A: Its viability, T/C is 54.4%.

Q: What about the viability, T/C (second compound 0.316 µM, first compound 10 µM) of the same molecule?
A: Its viability, T/C is 30.3%.

Q: And the viability, T/C [7]?
A: Its viability, T/C is 25.3%.

Q: What about the viability, T/C (second compound 1 µM, first compound 0.1 µM) of the same molecule?
A: Its viability, T/C is 15.9%.

Q: What about the viability, T/C [8] of the same molecule?
A: Its viability, T/C is 17.2%.

Q: And the viability, T/C (second compound 1 µM, first compound 1 µM)?
A: The viability, T/C was 11.2%.

Q: What about the viability, T/C (second compound 1 µM, first compound 3.16 µM) of the same molecule?
A: Its viability, T/C is 10.6%.

Q: And the viability, T/C (second compound 1 µM, first compound 10 µM)?
A: The viability, T/C was 13.6%.

Q: What about the viability, T/C [9] of the same molecule?
A: Its viability, T/C is 1.86%.

Q: What about the viability, T/C (second compound 3.16 µM, first compound 0.1 µM) of the same molecule?
A: Its viability, T/C is 2.35%.

Q: What about the viability, T/C [10] of the same molecule?
A: Its viability, T/C is 2.46%.

Q: And the viability, T/C (second compound 3.16 µM, first compound 1 µM)?
A: Its viability, T/C is 1.99%.

Q: And the viability, T/C (second compound 3.16 µM, first compound 3.16 µM)?
A: The viability, T/C was 2.23%.

Q: What about the viability, T/C (second compound 3.16 µM, first compound 10 µM) of the same molecule?
A: The viability, T/C was 1.76%.

Q: And the viability, T/C [11]?
A: The viability, T/C was 0.27%.

Q: What about the viability, T/C (second compound 10 µM, first compound 0.1 µM) of the same molecule?
A: The viability, T/C was 0.23%.

Q: And the viability, T/C [12]?
A: The viability, T/C was 0.79%.

Q: And the viability, T/C (second compound 10 µM, first compound 1 µM)?
A: The viability, T/C was 0.49%.

Q: And the viability, T/C (second compound 10 µM, first compound 3.16 µM)?
A: Its viability, T/C is 0.45%.

Q: And the viability, T/C (second compound 10 µM, first compound 10 µM)?
A: The viability, T/C was 0.34%.
